Measured values: patent US12172975B2, “1H-indazole carboxamides as receptor-interacting protein kinase 1 inhibitors (RIPK1)” (BRISTOL-MYERS SQUIBB COMPANY, priority 2018, dated 2024)
Read-outs that look alike come from different tables or passages of the source.

Assays:
[1] = test system: MLKL phosphorylation in HT29-L23 human colorectal adenocarcinoma cells; experiment: MLKL Phosphorylation High-Content Assay; assay type: cell-based; conditions: 6 h, necroptosis induced with TNFα, SMAC mimetic and Z-VAD, read-out: pMLKL (IC50)
Description: MLKL Phosphorylation High-Content Assay
HT29-L23 human colorectal adenocarcinoma cells were maintained in RPMI 1640 medium containing 10% heat-inactivated FBS, 1% Penicillin-Streptomycin and 10 mM HEPES. Cells were seeded at 2,000 cells/well in 384 well tissue culture-treated microplates (Greiner #781090-3B) and incubated at 37° C. (5% CO2/95% O2) for 2 d. […] (5% CO2/95% O2). Necroptopsis was induced using a mixture of human TNFα (35 ng/mL) (Peprotech #300-01A), SMAC mimetic (from US 2015/0322111 A1) (700 nM) and Z-VAD ([…]) (BD pharmingen #51-6936). Following 6 h incubation at 37° C. (5% CO2/95% O2), the cells were fixed with 4% formaldehyde (ACROS 11969-0010) for 15 min at rt, then permeabilized with phosphate buffered saline (PBS) containing 0.2% Triton-X-100 for 10 min. MLKL phosphorylation was detected using anti-MLKL (phospho S358) antibody (Abeam #ab 187091) (1:1000 dilution in Blocking Buffer [PBS supplemented with 0.1% BSA]) with ON incubation at 4° C. After washing three times in PBS, goat anti-rabbit Alexa-488 (1:1000 dilution) (Life Technologies, A11008) and Hoechst 33342 (Life Technologies, H3570) (1:2000 dilution) in Blocking Buffer were added for 1 h at rt.
Following another three cycles of washes in PBS, the microplates were sealed, and cellular images were acquired in the Cellomics ArrayScan VTI high-content imager equipped with an X1 camera. Fluorescent images were taken using a 10× objective and the 386-23 BGRFRN_BGRFRN and 485-20 BGRFRN_BGRFRN filter sets, for nuclei and MLKL phosphorylation, respectively. The image sets were analyzed using the Compartmental Analysis Bioapplication software (Cellomics). The level of MLKL phosphorylation was quantified as MEAN_CircRingAvglntenRatio. The maximal inhibitory response was defined by the activity induced by Neels (CAS #: 852391-15-2, 6.25 μM). […] The data were fitted using the 4-parameter logistic equation to calculate the IC50 and Ymax values.

[2] = biological target: His-GST-TVMV-hRIPK1 (1-324) (Homo sapiens (Human), UniProt Q13546); experiment: RIPK1 HTRF Binding Assay; conditions: read-out: RIPK1 HTRF (IC50); FRET probe displacement, 1 h at rt
Chain of His-GST-TVMV-hRIPK1 (1-324) (Q13546 1-324): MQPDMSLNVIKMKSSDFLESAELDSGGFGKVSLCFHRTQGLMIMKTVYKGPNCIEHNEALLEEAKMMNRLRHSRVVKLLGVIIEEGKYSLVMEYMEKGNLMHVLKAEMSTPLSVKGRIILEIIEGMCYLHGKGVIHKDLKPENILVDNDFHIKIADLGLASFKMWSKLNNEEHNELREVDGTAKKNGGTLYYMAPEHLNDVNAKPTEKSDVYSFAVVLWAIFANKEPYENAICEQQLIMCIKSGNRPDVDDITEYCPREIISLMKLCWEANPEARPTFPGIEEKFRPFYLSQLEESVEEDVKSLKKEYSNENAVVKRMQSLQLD

| Compound | IC50 ([1]; Homo sapiens) [µM] | IC50 [2] [µM] | IC50 [1] [µM] |
| --- | --- | --- | --- |
| CCCN(CC1CC1)C(=O)C1CCCC(NC(=O)c2cc(-c3ccc4c(C(=O)NC)n[nH]c4c3)cnc2OC)C1 (stereo not shown) [Example 123, 6-[5-({3-[(cyclopropylmethyl)-(propyl)carbamoyl]cyclohexyl}-carbamoyl)-6-methoxypyridin-3-yl]-N-methyl-1H-indazole-3-carboxamide] | 0.075 | 0.021 |  |
| CNC(=O)c1n[nH]c2cc(-c3cnc(OC)c(C(=O)NCC4(C(=O)OC5CCCC5)CC4)c3)ccc12 [Example 140, cyclopentyl 1-[({2-methoxy-5-[3-(methylcarbamoyl)-1H-indazol-6-yl]pyridin-3-yl}-formamido)methyl]cyclopro-pane-1-carboxylate] |  | 0.0069 | 0.018 |
| CNC(=O)c1n[nH]c2cc(-c3cnc(OC)c(C(=O)NCCCOCC(C)C)c3)ccc12 [Example 64, 6-(6-methoxy-5-{[3-(2-methyl-propoxy)propyl]carbamoyl}-pyridin-3-yl)-N-methyl-1H-indazole-3-carboxamide] | 0.003 | 0.0081 |  |
| [2H]C([2H])([2H])Oc1ncc(-c2ccc3c(C(=O)NCC(C)(C)F)n[nH]c3c2)cc1C(=O)N[C@@H]1CN(C(=O)C2CC(F)(F)C2)C[C@@H]1F [Example 193, 6-(5-{[(3R,4S)-1-(3,3-difluorocyclo-butanecarbonyl)-4-fluoropyrrolidin-3-yl]carbamoyl}-6-(deutero)methoxy-pyridin-3-yl)-N-(2-fluoro-2-methyl-propyl)-1H-indazole-3-carboxamide] | 0.48 | 0.26 |  |
| CNC(=O)c1n[nH]c2cc(-c3cnc(OC)c(C(=O)NCC4CCCOC4c4ccccc4)c3)ccc12 (stereo not shown) [Example 79, 6-(6-methoxy-5-{[(2-phenyl-oxan-3-yl)methyl]carbamoyl}-pyridin-3-yl)-N-methyl-1H-indazole-3-carboxamide] | 0.021 | 0.0018 |  |
| COc1ccccc1N1CC(NC(=O)c2n[nH]c3cc(-c4cnc(OC)c(C(=O)NCc5ccccc5OC(F)(F)F)c4)ccc23)CC1=O (stereo not shown) [Example 186, 6-[6-methoxy-5-({[2-(trifluoro-methoxy)phenyl]methyl}-carbamoyl)pyridin-3-yl]-N-[1-(2-methoxyphenyl)-5-oxo-pyrrolidin-3-yl]-1H-indazole-3-carboxamide] | 0.013 | 0.095 |  |
| [2H]C([2H])([2H])Oc1ncc(-c2ccc3c(C(=O)NC4CC4)n[nH]c3c2)cc1C(=O)NCC(C)(C)C(=O)OC(C)(C)C [Example 200, tert-butyl 3-({5-[3-(cyclopropyl-carbamoyl)-1H-indazol-6-yl]-2-(deutero)methoxypyridin-3-yl}-formamido)-2,2-dimethyl-propanoate] | 0.079 | 0.13 |  |
| [2H]C([2H])([2H])NC(=O)c1n[nH]c2cc(-c3cnc(OC([2H])([2H])[2H])c(C(=O)N[C@H](C)c4ccccc4OC(F)(F)F)c3)ccc12 [Example 7, (R)-6-(6-(methoxy-d3)-5-((1-(2-(trifluoromethoxy)phenyl)ethyl)carbamoyl)pyridin-3-yl)-N-(methyl-d3)-1H-indazole-3-carboxamide] | 0.0046 | 0.0085 |  |
| CNC(=O)c1n[nH]c2cc(-c3cnc(OC)c(C(=O)NC4CCCC(C(=O)N5CCCC5)C4)c3)ccc12 (stereo not shown) [Example 99, 6-(6-methoxy-5-{[3-(pyrrol-idine-1-carbonyl)cyclohexyl]-carbamoyl}pyridin-3-yl)-N-methyl-1H-indazole-3-carbox-amide] |  | 0.011 | 0.014 |
| COc1ncc(-c2ccc3c(C(=O)NC4CC4)n[nH]c3c2)cc1C(=O)N[C@H](C)c1cc(OC(F)(F)F)ccc1F [Example 207, N-cyclopropyl-6-(5-{[(1R)-1-[2-fluoro-5-(trifluoromethoxy)-phenyl](2,2,2-deutero)ethyl]-carbamoyl}-6-(deutero)methoxy-pyridin-3-yl)-1H-indazole-3-carboxamide] |  | 0.053 | 0.11 |
| COc1ncc(-c2ccc3c(C(=O)NC4CCN(S(C)(=O)=O)CC4)n[nH]c3c2)cc1C(=O)NCc1ccccc1OC(F)(F)F [Example 169, N-(1-methanesulfonylpiperidin-4-yl)-6-[6-methoxy-5-({[2-(trifluoromethoxy)phenyl]-methyl}carbamoyl)pyridin-3-yl]-1H-indazole-3-carboxamide] | 0.031 | 0.022 |  |
| CCNC(=O)c1n[nH]c2cc(-c3cnc(OC)c(C(=O)N[C@@H](C)c4cc(C(F)(F)F)ccc4F)c3)ccc12 [Example 236, N-[(1,1,2,2,2-deutero)ethyl]-6-(5-{[(1S)-1-[2-fluoro-5-(trifluorometh-yl)phenyl](2,2,2-deutero)ethyl]-carbamoyl}-6-(deutero)methoxy-pyridin-3-yl)-1H-indazole-3-carbox-amide] |  | 0.037 | 0.04 |
| [2H]C([2H])([2H])Oc1ncc(-c2ccc3c(C(=O)NC4CC4)n[nH]c3c2)cc1C(=O)N[C@H](C)c1ccccc1OC(F)(F)F [Example 13, (R)—N-cyclopropyl-6-(6-methoxyd3-5-((1-(2-(trifluoromethoxy)phenyl)ethyl)carbamoyl)pyridin-3-yl)-1H-indazole-3-carboxamide] | 0.0051 | 0.0055 |  |
| CNC(=O)c1n[nH]c2cc(-c3cnc(OC)c(C(=O)NCC4(c5ccc(F)cc5)CC4)c3)ccc12 [Example 71, 6-[5-({[1-(4-fluorophenyl)cyclo-propyl]methyl}carbamoyl)-6-methoxypyridin-3-yl]-N-methyl-1H-indazole-3-carboxamide] | 0.077 | 0.08 |  |
| CCOC(=O)C(C)(C)CNC(=O)c1cc(-c2ccc3c(C(=O)NC)n[nH]c3c2)cnc1OC [Example 88, ethyl 3-({2-methoxy-5-[3-(methylcarbamoyl)-1H-indazol-6-yl]pyridin-3-yl}-formamido)-2,2-dimethyl-propanoate] | 0.25 | 0.052 |  |
| CNC(=O)c1n[nH]c2cc(-c3cnc(OC)c(C(=O)NC(C)c4ccccc4OC(F)(F)F)c3)ccc12 (single isomer, unassigned) [Example 15, 6-(6-methoxyd3-5-((1-(2-(trifluoromethoxy)phenyl)ethyl)carbamoyl)pyridin-3-yl)-N-methyl-1H-indazole-3-carboxamide] |  | 0.005 |  |
| CNC(=O)c1n[nH]c2cc(-c3cnc(OC)c(C(=O)NCC4CCCC4(C)C)c3)ccc12 (stereo not shown) [Example 116, 6-(5-{[(2,2-dimethylcyclo-pentyl)methyl]carbamoyl}-6-methoxypyridin-3-yl)-N-methyl-1H-indazole-3-carbox-amide] |  | 0.0096 | 0.054 |
| CNC(=O)c1n[nH]c2cc(-c3cc(C(=O)NC(C)c4cccc(OC(F)(F)F)c4)c(C)nc3C)ccc12 (single isomer, unassigned) [Example 164, 6-[2,6-dimethyl-5-({1-[3-(trifluoromethoxy)phenyl]-ethyl}carbamoyl)pyridin-3-yl]-N-methyl-1H-indazole-3-carboxamide] |  | 0.0054 | 0.0037 |
| COc1ncc(-c2ccc3c(C(=O)NCC(F)(F)F)n[nH]c3c2)cc1C(=O)NCc1ccccc1OC(F)(F)F [Example 178] | 0.12 |  |  |
| CNC(=O)c1n[nH]c2cc(-c3cnc(OC)c(C(=O)N[C@@H](C)c4cc(OC(F)(F)F)ccc4F)c3)ccc12 [Example 222] |  |  | 0.014 |
